Laboratory results as given in patent US9730944B2, “Antiviral activity of novel bicyclic heterocycles” (priority 2010, dated 2017).

Tests used:
[1] = tested on: genotype 1a H-77 replicon; experiment: HCV-1a replicon potency in RLuc-1 cells, bioluminescence; format: cell-based; details: for HCV-1a Replicon Selectivity Index: CC50/EC50, genotype 1a replicon; for EC50: Hepatitis C virus, 72 h, read-out: HCV-1a Replicon EC50 (μM)
[2] = Cytotoxicity in HCV-1a replicon cells, Promega CellTiter-Glo cell viability assay

Compound | HCV-1a Replicon Selectivity Index [1] | EC50 [1] [µM] | CC50 at 72 h [2] [µM]
Nc1nc(N2CCN(C(=O)COc3ccc(Cl)cc3)CC2)c2nc(CCc3ccccc3)sc2n1 [Example 118, 5-amino-7-[4-(4-chlorophenoxyacetyl)piperazin-1-yl]-2-(2-phenylethyl)thiazolo[5,4-d]pyrimidine] | 8.4 | 3.6 | 30.3
Nc1nc(N2CCN(S(=O)(=O)Cc3ccccc3)CC2)c2nc(CCc3ccc(F)cc3)sc2n1 [Example 137, 5-amino-2-[2-(4-fluorophenyl)ethyl]-7-[4-phenylmethanesulfonylpiperazin-1-yl]-thiazolo[5,4-d]pyrimidine] | 0.8 | 26.9 | 21.8
COc1cccc(C(=O)N2CCN(c3nc(N)nc4[nH]c(-c5ccc(F)cc5)nc34)CC2)c1 [Example 402, (4-(2-amino-8-(4-fluorophenyl)-9H-purin-6-yl)piperazin-1-yl)(3-methoxyphenyl)methanone] | – | > 44.4 | > 44.4
Nc1nc(N2CCN(C(=O)COc3ccc(Cl)cc3)CC2)c2nc(C(c3ccc(F)cc3)C3CCCC3)sc2n1 (centres unmarked) [Example 151, 5-amino-2-[cyclopentyl-(4-fluorophenyl)methyl]-7-(4-[2-(4-chlorophenoxy)acetyl]piperazin-1-yl)thiazolo[5,4-d]pyrimidine] | 2.1 | 14.7 | 31.2
Nc1nc(N2CCN(C(=O)COc3ccc(Cl)cc3)CC2)c2nc(Cc3ccc(Cl)cc3)sc2n1 [Example 122, 5-amino-7-[4-(4-chlorophenoxyacetyl)piperazin-1-yl]-2-(4-chlorophenylmethyl)thiazolo[5,4-d]pyrimidine] | 5.8 | 4.7 | 26.8
CC(=O)N1CCN(c2nc(N)nc3[nH]c(-c4ccc(F)cc4)nc23)CC1 [Example 408, 1-(4-(2-amino-8-(4-fluorophenyl)-9H-purin-6-yl)piperazin-1-yl)ethanone] | – | > 44.4 | > 44.4
Nc1nc(N2CCN(C(=O)COc3ccc(Cl)cc3)CC2)c2nc(CCc3cccs3)sc2n1 [Example 154, 5-amino-2-(2-thiophen-2-ylethyl)-7-(4-[2-(4-chloro-phenoxy)acetyl]piperazin-1-yl)thiazolo[5,4-d]pyrimidine] | – | > 44.4 | > 44.4
Nc1nc(N2CCN(C(=O)c3ccc(Cl)cc3)CC2)c2nc(CCc3cccs3)sc2n1 [Example 156, 5-amino-2-(2-thiophen-2-ylethyl)-7-(4-(4-chloro-benzoyl)piperazin-1-yl)thiazolo[5,4-d]pyrimidine] | 1.5 | 20.7 | 30.7
Cc1cccc(NC(=O)N2CCN(c3nc(N)nc4oc(CCc5ccc(F)cc5)nc34)CC2)c1 [Example 196, 5-amino-2-[2-(4-fluorophenyl)ethyl]-7-(4-m-tolylcarbamoylpiperazin-1-yl)-oxazolo[5,4-d]pyrimidine] | 1.6 | 15.6 | 24.5
Nc1nc(N2CCN(C(=O)COc3ccc(Cl)cc3)CC2)c2nc(-c3cccc(Cl)c3)[nH]c2n1 [Example 393, 1-(4-(2-amino-8-(3-chlorophenyl)-9H-purin-6-yl)piperazin-1-yl)-2-(4-chlorophenoxy)ethanone] | 2.5 | 3.2 | 8.1
Nc1nc(N2CCCN(C(=O)COc3ccc(Cl)cc3)CC2)c2nc(-c3ccc(F)cc3)[nH]c2n1 [Example 421, 1-(4-(2-amino-8-(4-fluorophenyl)-9H-purin-6-yl)-1,4-diazepan-1-yl)-2-(4-chlorophenoxy)ethanone] | 1.9 | 12.7 | 23.8
CCCSc1nc2c(N3CCN(C(=O)COc4ccc(Cl)cc4)CC3)nc(N)nc2[nH]1 [Example 425, 1-(4-(2-amino-8-(propylthio)-9H-purin-6-yl)piperazin-1-yl)-2-(4-chlorophenoxy)ethanone] | 19.7 | 1.2 | 23.6
Nc1nc(N2CCN(C(=O)Cc3cccs3)CC2)c2nc(-c3ccc(F)cc3)[nH]c2n1 [Example 403, 1-(4-(2-amino-8-(4-fluorophenyl)-9H-purin-6-yl)piperazin-1-yl)-2-(thiophen-2-yl)ethanone] | 0.8 | 11.3 | 9.6
CC(C)(C)c1nc2c(N3CCN(C(=O)COc4ccc(Cl)cc4)CC3)nc(N)nc2[nH]1 [Example 399, 1-(4-(2-amino-8-tert-butyl-9H-purin-6-yl)piperazin-1-yl)-2-(4-chlorophenoxy)ethanone] | 1.2 | 24.7 | 29.1
Nc1nc(NC2CCCN(C(=O)OCc3ccccc3)C2)c2nc(CCc3ccc(F)cc3)sc2n1 (centres unmarked) [Example 145, 5-amino-2-[2-(4-fluorophenyl)ethyl]-7-(1-benzyloxycarbonylpiperidin-3-ylamino)-thiazolo[5,4-d]pyrimidine] | 2.1 | 13.1 | 27.6
Nc1nc(N2CCN(C(=O)COc3ccc(Cl)cc3)CC2)c2nc(-c3ccc(OC(F)(F)F)cc3)[nH]c2n1 [Example 395, 1-(4-(2-amino-8-(4-(trifluoromethoxy)phenyl)-9H-purin-6-yl)piperazin-1-yl)-2-(4-chlorophenoxy)ethanone] | 1.1 | 9.9 | 10.7
Nc1nc(N2CCN(C(=O)COc3ccc(Cl)cc3)CC2)c2nc(-c3cccnc3)sc2n1 [Example 121a, 5-amino-7-[4-(4-chlorophenoxyacetyl)piperazin-1-yl]-2-(pyridine-3-yl)thiazolo[5,4-d]pyrimidine] | >888 | 0.05 | > 44.4
Nc1nc(N2CCN(C(=O)COc3ccccc3)CC2)c2nc(CCc3ccc(F)cc3)sc2n1 [Example 134, 5-amino-2-[2-(4-fluorophenyl)ethyl]-7-(4-[2-phenoxyacetyl]piperazin-1-yl)-thiazolo[5,4-d]pyrimidine] | – | > 44.4 | > 44.4
Nc1nc(N2CCN(C(=O)COc3ccc(Cl)cc3)CC2)c2nc(-c3ccc(Cl)cc3)[nH]c2n1 [Example 392, 1-(4-(2-amino-8-(4-chlorophenyl)-9H-purin-6-yl)piperazin-1-yl)-2-(4-chlorophenoxy)ethanone] | 4.6 | 2.7 | 12.2
Nc1nc(N2CCN(C(=O)COc3ccc(Cl)cc3)CC2)c2cc(-c3ccccc3)sc2n1 [Example 329, 1-(4-(2-amino-6-phenylthieno[2,3-d]pyrimidin-4-yl)piperazin-1-yl)-2-(4-chlorophenoxy)ethanone] | 3.8 | 11.8 | > 44.4
Cc1cccc(NC(=O)N2CCCN(c3nc(N)nc4[nH]c(-c5ccc(F)cc5)nc34)CC2)c1 [Example 422, 4-(2-amino-8-(4-fluorophenyl)-9H-purin-6-yl)-N-m-tolyl-1,4-diazepane-1-carboxamide] | 1.3 | 26.1 | 35.1
Cn1c(-c2ccc(F)cc2)nc2c(N3CCN(C(=O)COc4ccc(Cl)cc4)CC3)nc(N)nc21 [Example 430, 1-(4-(2-amino-8-(4-fluorophenyl)-9-methyl-9H-purin-6-yl)piperazin-1-yl)-2-(4-chlorophenoxy)ethanone] | 54.0 | 0.3 | 15.1
CN(C(=O)CN1CCN(c2nc(N)nc3[nH]c(-c4ccc(F)cc4)nc23)CC1)c1ccccc1 [Example 413, 2-(4-(2-amino-8-(4-fluorophenyl)-9H-purin-6-yl)piperazin-1-yl)-N-methyl-N-phenylacetamide] | 0.5 | > 44.4 | 20.3
COc1ccc(-c2nc3c(N4CCN(C(=O)COc5ccc(Cl)cc5)CC4)nc(N)nc3[nH]2)cc1OC [Example 390, 1-(4-(2-amino-8-(3,4-dimethoxyphenyl)-9H-purin-6-yl)piperazin-1-yl)-2-(4-chlorophenoxy)ethanone] | 9.9 | 1.7 | 17.3
Nc1nc(N2CCN(C(=O)COc3ccccc3)CC2)c2cc(-c3ccccc3)sc2n1 [Example 332, 1-(4-(2-amino-6-phenylthieno[2,3-d]pyrimidin-4-yl)piperazin-1-yl)-2-phenoxyethanone] | 0.9 | > 44.4 | 38.5
CSc1nc2c(N3CCN(C(=O)COc4ccc(Cl)cc4)CC3)nc(N)nc2[nH]1 [Example 424, 1-(4-(2-amino-8-(methylthio)-9H-purin-6-yl)piperazin-1-yl)-2-(4-chlorophenoxy)ethanone] | >1.3 | 34.8 | > 44.4
Nc1nc(N2CCN(C(=O)COc3ccc(Cl)cc3)CC2)c2nc(-c3ccc(C(F)(F)F)cc3)[nH]c2n1 [Example 394, 1-(4-(2-amino-8-(4-(trifluoromethyl)phenyl)-9H-purin-6-yl)piperazin-1-yl)-2-(4-chlorophenoxy)ethanone] | 1.2 | 9 | 10.6
Nc1nc(N2CCN(CC(=O)Nc3cccnc3)CC2)c2nc(-c3ccc(F)cc3)[nH]c2n1 [Example 412, 2-(4-(2-amino-8-(4-fluorophenyl)-9H-purin-6-yl)piperazin-1-yl)-N-(pyridin-3-yl)acetamide] | >111 | 0.4 | > 44.4
Nc1nc(N2CCN(C(=O)COc3ccc(Cl)cc3)CC2)c2nc(C3CCCCC3)sc2n1 [Example 120, 5-amino-7-[4-(4-chlorophenoxyacetyl)piperazin-1-yl]-2-cyclohexylthiazolo[5,4-d]pyrimidine] | 2.1 | 6.4 | 13.4
